According to ChEMBL document CHEMBL6109095, “Impact of fixed phosphorus position on activity of triazole bisphosphonates as geranylgeranyl diphosphate synthase inhibitors” (Bioorg Med Chem, 2025):
Calls of active or inactive are those of the source. No cut-off for these calls is given here.

Target: T1, Geranylgeranyl pyrophosphate synthase (Homo sapiens) (UniProt O95749)
T1 sequence (whole entry): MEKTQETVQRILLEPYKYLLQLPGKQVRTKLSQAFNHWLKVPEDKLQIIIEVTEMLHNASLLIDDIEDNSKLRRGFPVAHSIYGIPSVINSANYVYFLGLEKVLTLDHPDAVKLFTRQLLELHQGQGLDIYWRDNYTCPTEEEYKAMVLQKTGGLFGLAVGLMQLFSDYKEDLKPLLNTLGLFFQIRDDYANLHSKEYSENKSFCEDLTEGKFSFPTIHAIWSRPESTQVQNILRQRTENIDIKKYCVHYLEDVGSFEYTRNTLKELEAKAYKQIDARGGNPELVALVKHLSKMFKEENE
Experiment: Inhibition of GGDPS in human RPMI-8226 cells assessed as lowest effective concentration required to show unmodified Rap1a band measured after 48 hrs by immunoblot analysis
Format: cell-based
Conditions: not given

Question: For `CC(C)=CCC/C(C)=C\CCn1cc(C2CC2(P(=O)([O-])[O-])P(=O)([O-])[O-])nn1.[Na+].[Na+].[Na+].[Na+]` (centres undefined), which LED is on record?
Answer: The LED was 100 µM.

Question: For `CC(C)=CCC/C(C)=C/CCn1cc(CC(C)(P(=O)(O)O)P(=O)(O)O)nn1`, which LED is on record?
Answer: Its LED is 0.02 µM.

Question: With `CC(C)=CCCC(C)=CCn1cc(CC(P(=O)(O)O)P(=O)(O)O)nn1` as the compound, how does the LED read?
Answer: The LED was 0.5 µM.

Question: Which LED does the source give for `CC(C)=CCC/C(C)=C/CCn1cc(C2CC2(P(=O)([O-])[O-])P(=O)([O-])[O-])nn1.[Na+].[Na+].[Na+].[Na+]` (centres undefined) here?
Answer: The LED was 100 µM.

Question: For `CC(C)=CCC/C(C)=C/CCn1cc(CC(P(=O)(O)O)P(=O)(O)O)nn1`, which LED is on record?
Answer: The LED was 0.09 µM.

Question: For `CC(C)=CCCC(C)=CCn1cc(C2OC2(P(=O)(O)O)P(=O)(O)O)nn1` (centres undefined), which LED is on record?
Answer: Its LED is 5 µM.

Question: Which LED does the source give for `CC(C)=CCC/C(C)=C\CCn1cc(CC(C)(P(=O)(O)O)P(=O)(O)O)nn1` here?
Answer: Its LED is 0.025 µM.

Target: T1, Geranylgeranyl pyrophosphate synthase (Homo sapiens)
Experiment: Inhibition of GGDPS in human RPMI-8226 cells assessed as lowest effective concentration required for increase in intracellular lambda chain level after 48 hrs by ELISA
Format: cell-based
Conditions: not given

Question: With `CC(C)=CCC/C(C)=C\CCn1cc(C2CC2(P(=O)([O-])[O-])P(=O)([O-])[O-])nn1.[Na+].[Na+].[Na+].[Na+]` (centres undefined) as the compound, how does the LED read?
Answer: The LED was 100 µM.

Question: With `CC(C)=CCC/C(C)=C/CCn1cc(CC(C)(P(=O)(O)O)P(=O)(O)O)nn1` as the compound, how does the LED read?
Answer: The LED was 0.02 µM.

Question: For `CC(C)=CCCC(C)=CCn1cc(CC(P(=O)(O)O)P(=O)(O)O)nn1`, which LED is on record?
Answer: Its LED is 0.5 µM.

Question: With `CC(C)=CCC/C(C)=C/CCn1cc(C2CC2(P(=O)([O-])[O-])P(=O)([O-])[O-])nn1.[Na+].[Na+].[Na+].[Na+]` (centres undefined) as the compound, how does the LED read?
Answer: Its LED is 100 µM.

Question: For `CC(C)=CCC/C(C)=C/CCn1cc(CC(P(=O)(O)O)P(=O)(O)O)nn1`, which LED is on record?
Answer: Its LED is 0.09 µM.

Question: For `CC(C)=CCCC(C)=CCn1cc(C2OC2(P(=O)(O)O)P(=O)(O)O)nn1` (centres undefined), which LED is on record?
Answer: Its LED is 5 µM.

Target: T1, Geranylgeranyl pyrophosphate synthase (Homo sapiens)
Experiment: Inhibition of GGDPS in human RPMI-8226 cells assessed as appearance of unmodified Rap1a band up to 100 uM measured after 48 hrs by immunoblot analysis
Format: cell-based
Conditions: not given

Question: Which inhibition does the source give for `CC(C)=CCC/C(C)=C/CCn1cc(C2OC2(P(=O)(O)O)P(=O)(O)O)nn1` (centres undefined) here?
Answer: Its inhibition is “inactive”.

Question: For `CC(C)=CCCC(C)CCCn1cc(C2CC2(P(=O)(O)O)P(=O)(O)O)nn1` (centres undefined), which inhibition is on record?
Answer: Its inhibition is “inactive”.

Target: T1, Geranylgeranyl pyrophosphate synthase (Homo sapiens)
Experiment: Inhibition of GGDPS in human MG-63 cells assessed as appearance of unmodified Rap1a band at 0.1 to 1 uM measured after 48 hrs by immunoblot analysis
Format: cell-based
Conditions: dose 0.1-1 µM

Question: Which inhibition does the source give for `CC(C)=CCC/C(C)=C/CCn1cc(C2OC2(P(=O)(O)O)P(=O)(O)O)nn1` (centres undefined) here?
Answer: Its inhibition is “Active”.

Target: T1, Geranylgeranyl pyrophosphate synthase (Homo sapiens)
Experiment: Inhibition of GGDPS in human MM1.S cells assessed as lowest effective concentration required to show unmodified Rap1a band measured after 48 hrs by immunoblot analysis
Format: cell-based
Conditions: not given

Question: With `CC(C)=CCCC(C)=CCn1cc(C2OC2(P(=O)(O)O)P(=O)(O)O)nn1` (centres undefined) as the compound, how does the LED read?
Answer: The LED was 5 µM.

Target: T1, Geranylgeranyl pyrophosphate synthase (Homo sapiens)
Experiment: Inhibition of GGDPS in human SAOS-2 cells assessed as appearance of unmodified Rap1a band at 0.1 to 1 uM measured after 48 hrs by immunoblot analysis
Format: cell-based
Conditions: dose 0.1-1 µM

Question: With `CC(C)=CCC/C(C)=C/CCn1cc(C2OC2(P(=O)(O)O)P(=O)(O)O)nn1` (centres undefined) as the compound, how does the inhibition read?
Answer: Its inhibition is “Active”.

Target: T1, Geranylgeranyl pyrophosphate synthase (Homo sapiens)
Experiment: Inhibition of GGDPS in human RPMI-8226 cells assessed as increase in intracellular lambda chain level up to 100 uM after 48 hrs by ELISA
Format: cell-based
Conditions: not given

Question: With `CC(C)=CCC/C(C)=C/CCn1cc(C2OC2(P(=O)(O)O)P(=O)(O)O)nn1` (centres undefined) as the compound, how does the inhibition read?
Answer: Its inhibition is “inactive”.

Question: With `CC(C)=CCCC(C)CCCn1cc(C2CC2(P(=O)(O)O)P(=O)(O)O)nn1` (centres undefined) as the compound, how does the inhibition read?
Answer: The inhibition was “inactive”.

Tested on: not listed separately
Experiment: Apparent permeability of the compound by PAMPA
Format: ADME
Conditions: not given

Question: Which Papp does the source give for `CC(C)=CCC/C(C)=C\CCn1cc(C2CC2(P(=O)([O-])[O-])P(=O)([O-])[O-])nn1.[Na+].[Na+].[Na+].[Na+]` (centres undefined) here?
Answer: The Papp was 0.283 10^-6 cm/s.

Question: For `CC(C)=CCC/C(C)=C/CCn1cc(C2CC2(P(=O)([O-])[O-])P(=O)([O-])[O-])nn1.[Na+].[Na+].[Na+].[Na+]` (centres undefined), which Papp is on record?
Answer: The Papp was 0.061 10^-6 cm/s.

Target: T1, Geranylgeranyl pyrophosphate synthase (Homo sapiens)
Experiment: Inhibition of GGDPS in human SAOS-2 cells assessed as lowest effective concentration required to show unmodified Rap1a band measured after 48 hrs by immunoblot analysis
Format: cell-based
Conditions: not given

Question: With `CC(C)=CCC/C(C)=C\CCn1cc(C2CC2(P(=O)([O-])[O-])P(=O)([O-])[O-])nn1.[Na+].[Na+].[Na+].[Na+]` (centres undefined) as the compound, how does the LED read?
Answer: Its LED is 50 µM.

Question: With `CC(C)=CCC/C(C)=C/CCn1cc(C2CC2(P(=O)([O-])[O-])P(=O)([O-])[O-])nn1.[Na+].[Na+].[Na+].[Na+]` (centres undefined) as the compound, how does the LED read?
Answer: The LED was 5 µM.

Question: With `CC(C)=CCCC(C)=CCn1cc(C2OC2(P(=O)(O)O)P(=O)(O)O)nn1` (centres undefined) as the compound, how does the LED read?
Answer: The LED was 0.5 µM.

Target: T2, Geranylgeranyl pyrophosphate synthase (Homo sapiens, UniProt O95749)
T2 sequence (O95749 whole entry): T1 sequence (whole entry)
Experiment: Inhibition of recombinant GGDPS (unknown origin) using [14C] IPP and FPP as substrate preincubated for 10 mins followed by substrate addition and measured after 30 mins by scintillation counting method
Conditions: not given

Question: With `CC(C)=CCC/C(C)=C\CCn1cc(C2CC2(P(=O)([O-])[O-])P(=O)([O-])[O-])nn1.[Na+].[Na+].[Na+].[Na+]` (centres undefined) as the compound, how does the IC50 read?
Answer: Its IC50 is 2870 nM.

Question: With `CC(C)=CCC/C(C)=C/CCn1cc(C2CC2(P(=O)([O-])[O-])P(=O)([O-])[O-])nn1.[Na+].[Na+].[Na+].[Na+]` (centres undefined) as the compound, how does the IC50 read?
Answer: Its IC50 is 890 nM.

Question: For `CC(C)=CCC/C(C)=C/CCn1cc(C2OC2(P(=O)(O)O)P(=O)(O)O)nn1` (centres undefined), which IC50 is on record?
Answer: The IC50 was 450 nM.

Question: For `CC(C)=CCCC(C)CCCn1cc(C2CC2(P(=O)(O)O)P(=O)(O)O)nn1` (centres undefined), which IC50 is on record?
Answer: Its IC50 is over 100000 nM.

Question: Which IC50 does the source give for `CC(C)=CCCC(C)=CCn1cc(C2OC2(P(=O)(O)O)P(=O)(O)O)nn1` (centres undefined) here?
Answer: The IC50 was 11000 nM.

Target: T1, Geranylgeranyl pyrophosphate synthase (Homo sapiens)
Experiment: Inhibition of GGDPS in human MG-63 cells assessed as lowest effective concentration required to show unmodified Rap1a band measured after 48 hrs by immunoblot analysis
Format: cell-based
Conditions: not given

Question: Which LED does the source give for `CC(C)=CCC/C(C)=C\CCn1cc(C2CC2(P(=O)([O-])[O-])P(=O)([O-])[O-])nn1.[Na+].[Na+].[Na+].[Na+]` (centres undefined) here?
Answer: The LED was 50 µM.

Question: Which LED does the source give for `CC(C)=CCC/C(C)=C/CCn1cc(C2CC2(P(=O)([O-])[O-])P(=O)([O-])[O-])nn1.[Na+].[Na+].[Na+].[Na+]` (centres undefined) here?
Answer: Its LED is 5 µM.

Question: For `CC(C)=CCCC(C)=CCn1cc(C2OC2(P(=O)(O)O)P(=O)(O)O)nn1` (centres undefined), which LED is on record?
Answer: Its LED is 5 µM.

Target: T1, Geranylgeranyl pyrophosphate synthase (Homo sapiens)
Experiment: Inhibition of GGDPS in human 143B cells assessed as appearance of unmodified Rap1a band at 0.1 to 1 uM measured after 48 hrs by immunoblot analysis
Format: cell-based
Conditions: dose 0.1-1 µM

Question: Which inhibition does the source give for `CC(C)=CCC/C(C)=C/CCn1cc(C2OC2(P(=O)(O)O)P(=O)(O)O)nn1` (centres undefined) here?
Answer: Its inhibition is “Active”.

Target: T1, Geranylgeranyl pyrophosphate synthase (Homo sapiens)
Experiment: Inhibition of GGDPS in human 143B cells assessed as lowest effective concentration required to show unmodified Rap1a band measured after 48 hrs by immunoblot analysis
Format: cell-based
Conditions: not given

Question: Which LED does the source give for `CC(C)=CCC/C(C)=C\CCn1cc(C2CC2(P(=O)([O-])[O-])P(=O)([O-])[O-])nn1.[Na+].[Na+].[Na+].[Na+]` (centres undefined) here?
Answer: The LED was 50 µM.

Question: With `CC(C)=CCC/C(C)=C/CCn1cc(C2CC2(P(=O)([O-])[O-])P(=O)([O-])[O-])nn1.[Na+].[Na+].[Na+].[Na+]` (centres undefined) as the compound, how does the LED read?
Answer: Its LED is 5 µM.

Question: For `CC(C)=CCCC(C)=CCn1cc(C2OC2(P(=O)(O)O)P(=O)(O)O)nn1` (centres undefined), which LED is on record?
Answer: The LED was 5 µM.

Target: T1, Geranylgeranyl pyrophosphate synthase (Homo sapiens)
Experiment: Inhibition of GGDPS in human MM1.S cells assessed as appearance of unmodified Rap1a band at 1 to 100 uM measured after 48 hrs by immunoblot analysis
Format: cell-based
Conditions: dose 1-100 µM

Question: Which inhibition does the source give for `CC(C)=CCC/C(C)=C\CCn1cc(C2CC2(P(=O)([O-])[O-])P(=O)([O-])[O-])nn1.[Na+].[Na+].[Na+].[Na+]` (centres undefined) here?
Answer: The inhibition was “Not active; No Appreciable Activity Observed”.

Question: Which inhibition does the source give for `CC(C)=CCC/C(C)=C/CCn1cc(C2CC2(P(=O)([O-])[O-])P(=O)([O-])[O-])nn1.[Na+].[Na+].[Na+].[Na+]` (centres undefined) here?
Answer: The inhibition was “Not active; No Appreciable Activity Observed”.
